The subject of the assay is dsDNA.

Source text: Intercalation properties of EDOT-ND-Os were further studied by competitive displacement assay.

On to “N[3-(imidazol-1-yl)propyl]-N′-[8-((2,3-dihydrothieno[3,4-b][1,4]dioxin-3-yl)methoxy)-3,6-dioxaoctyl]-1,4,5,8-naphthalenetetracarboxydiimide complex with Os(bpy)2Cl2 [EDOT-ND-Os]”, for which the binding constant is given as 8×10^4.

The values are drawn from patent publication US20100126880A1 (priority 2006, published 2010).
